Measurements reported in PubChem BioAssay (NCI).
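Exposure lasted 48 hours, with cells grown in 96-well plates and compounds tested at five concentrations. Here, GI50 denotes the concentration required for 50% inhibition of growth. TGI denotes the concentration required for complete inhibition of growth.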

Experiments:
Experiment in all cases: inhibition of tumour cell growth, NCI panel, 48 h
SN12C renal = test system: SN12C renal
MOLT-4 leukemia = test system: MOLT-4 leukemia
KM12 colon = test system: KM12 colon
MDA-MB-435 = test system: MDA-MB-435
T-47D breast = test system: T-47D breast
HCC-2998 colon = test system: HCC-2998 colon
SR leukemia = test system: SR leukemia
OVCAR-5 ovarian = test system: OVCAR-5 ovarian
HL-60(TB) leukemia = test system: HL-60(TB) leukemia
UACC-257 melanoma = test system: UACC-257 melanoma
SF-268 CNS = test system: SF-268 CNS
HOP-62 NSCLC = test system: HOP-62 NSCLC
OVCAR-8 ovarian = test system: OVCAR-8 ovarian
SK-MEL-28 melanoma = test system: SK-MEL-28 melanoma
HT29 colon = test system: HT29 colon
NCI-H522 lung = test system: NCI-H522 lung
MCF7 breast = test system: MCF7 breast
SNB-19 CNS = test system: SNB-19 CNS
HCT-15 colon = test system: HCT-15 colon
A549 NSCLC = test system: A549 NSCLC
M14 melanoma = test system: M14 melanoma
ACHN renal = test system: ACHN renal
MALME-3M melanoma = test system: MALME-3M melanoma
COLO 205 colon = test system: COLO 205 colon
SF-539 CNS = test system: SF-539 CNS
MDA-MB-231 breast = test system: MDA-MB-231 breast
SF-295 CNS = test system: SF-295 CNS
SW-620 colon = test system: SW-620 colon
HCT-116 colon = test system: HCT-116 colon
CCRF-CEM leukemia = test system: CCRF-CEM leukemia
K-562 leukemia = test system: K-562 leukemia
CAKI-1 renal = test system: CAKI-1 renal
UO-31 renal = test system: UO-31 renal
UACC-62 melanoma = test system: UACC-62 melanoma
TK-10 renal = test system: TK-10 renal
OVCAR-4 ovarian = test system: OVCAR-4 ovarian
NCI-H23 lung = test system: NCI-H23 lung
DU-145 prostate = test system: DU-145 prostate
NCI/ADR-RES ovarian = test system: NCI/ADR-RES ovarian
PC-3 prostate = test system: PC-3 prostate
SK-OV-3 ovarian = test system: SK-OV-3 ovarian
SNB-75 CNS = test system: SNB-75 CNS
RPMI-8226 leukemia = test system: RPMI-8226 leukemia
BT-549 breast = test system: BT-549 breast
NCI-H226 lung = test system: NCI-H226 lung
A498 renal = test system: A498 renal
IGROV1 ovarian = test system: IGROV1 ovarian
RXF 393 renal = test system: RXF 393 renal
HS 578T breast = test system: HS 578T breast
NCI-H460 lung = test system: NCI-H460 lung
OVCAR-3 ovarian = test system: OVCAR-3 ovarian
SK-MEL-5 melanoma = test system: SK-MEL-5 melanoma
786-0 renal = test system: 786-0 renal

SMILES: O=C(Nc1c(Cl)cccc1Cl)Oc1cccc2cccnc12
- GI50 (SN12C renal): 4.61 µM
- TGI (SN12C renal): > 100 µM
- GI50 (MOLT-4 leukemia): 3.96 µM
- TGI (MOLT-4 leukemia): 28.4 µM
- GI50 (KM12 colon): 4.69 µM
- TGI (KM12 colon): 70.4 µM
- GI50 (MDA-MB-435): 7.52 µM
- TGI (MDA-MB-435): > 100 µM
- GI50 (T-47D breast): 3.29 µM
- TGI (T-47D breast): 14.5 µM
- GI50 (HCC-2998 colon): 5.82 µM
- TGI (HCC-2998 colon): 24.6 µM
- GI50 (SR leukemia): 3.59 µM
- TGI (SR leukemia): 30.4 µM
- GI50 (OVCAR-5 ovarian): 5.01 µM
- TGI (OVCAR-5 ovarian): > 100 µM
- GI50 (HL-60(TB) leukemia): 3.75 µM
- TGI (HL-60(TB) leukemia): 20.6 µM
- GI50 (UACC-257 melanoma): 2.74 µM
- TGI (UACC-257 melanoma): 9.72 µM
- GI50 (SF-268 CNS): 5.46 µM
- TGI (SF-268 CNS): > 100 µM
- GI50 (HOP-62 NSCLC): 5.63 µM
- TGI (HOP-62 NSCLC): 21 µM
- GI50 (OVCAR-8 ovarian): 3.08 µM
- TGI (OVCAR-8 ovarian): 50 µM
- GI50 (SK-MEL-28 melanoma): 7.28 µM
- TGI (SK-MEL-28 melanoma): 75.2 µM
- GI50 (HT29 colon): 19.4 µM
- TGI (HT29 colon): > 100 µM
- GI50 (NCI-H522 lung): 3.71 µM
- TGI (NCI-H522 lung): 20.3 µM
- GI50 (MCF7 breast): 2.99 µM
- TGI (MCF7 breast): > 100 µM
- GI50 (SNB-19 CNS): 5.74 µM
- TGI (SNB-19 CNS): > 100 µM
- GI50 (HCT-15 colon): 0.992 µM
- TGI (HCT-15 colon): > 100 µM
- GI50 (A549 NSCLC): 4.47 µM
- TGI (A549 NSCLC): 40.2 µM
- GI50 (M14 melanoma): 4.03 µM
- TGI (M14 melanoma): 20.2 µM
- GI50 (ACHN renal): 3.87 µM
- TGI (ACHN renal): > 100 µM
- GI50 (MALME-3M melanoma): 6.19 µM
- TGI (MALME-3M melanoma): 81 µM
- GI50 (COLO 205 colon): 35.2 µM
- TGI (COLO 205 colon): > 100 µM
- GI50 (SF-539 CNS): 4.57 µM
- TGI (SF-539 CNS): 19 µM
- GI50 (MDA-MB-231 breast): 4.24 µM
- TGI (MDA-MB-231 breast): 25.3 µM
- GI50 (SF-295 CNS): 6.68 µM
- TGI (SF-295 CNS): 69 µM
- GI50 (SW-620 colon): 4.23 µM
- TGI (SW-620 colon): > 100 µM
- GI50 (HCT-116 colon): 3.69 µM
- TGI (HCT-116 colon): > 100 µM
- GI50 (CCRF-CEM leukemia): 2.29 µM
- TGI (CCRF-CEM leukemia): 23.2 µM
- GI50 (K-562 leukemia): 4.52 µM
- TGI (K-562 leukemia): > 100 µM
- GI50 (CAKI-1 renal): 3.19 µM
- TGI (CAKI-1 renal): 24.4 µM
- GI50 (UO-31 renal): 2.74 µM
- TGI (UO-31 renal): 51.8 µM
- GI50 (UACC-62 melanoma): 3.04 µM
- TGI (UACC-62 melanoma): 10 µM
- GI50 (TK-10 renal): 8.98 µM
- TGI (TK-10 renal): > 100 µM
- GI50 (OVCAR-4 ovarian): 2.9 µM
- TGI (OVCAR-4 ovarian): 14 µM
- GI50 (NCI-H23 lung): 4.07 µM
- TGI (NCI-H23 lung): 45.5 µM
- GI50 (DU-145 prostate): 11.7 µM
- TGI (DU-145 prostate): > 100 µM
- GI50 (NCI/ADR-RES ovarian): 2.73 µM
- TGI (NCI/ADR-RES ovarian): 27.9 µM
- GI50 (PC-3 prostate): 6.26 µM
- TGI (PC-3 prostate): > 100 µM
- GI50 (SK-OV-3 ovarian): 4.62 µM
- TGI (SK-OV-3 ovarian): 39.4 µM
- GI50 (SNB-75 CNS): 13.5 µM
- TGI (SNB-75 CNS): 53.6 µM
- GI50 (RPMI-8226 leukemia): 3.64 µM
- TGI (RPMI-8226 leukemia): 47.7 µM
- GI50 (BT-549 breast): 8.85 µM
- TGI (BT-549 breast): 90 µM
- GI50 (NCI-H226 lung): 4.57 µM
- TGI (NCI-H226 lung): 21.7 µM
- GI50 (A498 renal): 7.99 µM
- TGI (A498 renal): 48 µM
- GI50 (IGROV1 ovarian): 3.68 µM
- TGI (IGROV1 ovarian): > 100 µM
- GI50 (RXF 393 renal): 16.7 µM
- TGI (RXF 393 renal): > 100 µM
- GI50 (HS 578T breast): 10.9 µM
- TGI (HS 578T breast): 66.1 µM
- GI50 (NCI-H460 lung): 3.46 µM
- TGI (NCI-H460 lung): 20.2 µM
- GI50 (OVCAR-3 ovarian): 3.64 µM
- TGI (OVCAR-3 ovarian): > 100 µM
- GI50 (SK-MEL-5 melanoma): 3.39 µM
- TGI (SK-MEL-5 melanoma): 12.3 µM
- GI50 (786-0 renal): 7.4 µM
- TGI (786-0 renal): > 100 µM
